Experimental data as given in ChEMBL document CHEMBL1147103, “First identification of Pseudomonas aeruginosa isolates producing a KPC-type carbapenem-hydrolyzing beta-lactamase” (2007).
Converted amounts (≈) assume the structure as drawn.

Assays:
Type in all cases: functional
Pseudomonas aeruginosa [1] = test: Antimicrobial susceptibility of carbapenem-resistant Pseudomonas aeruginosa PA4012 isolate expressing carbapenemase KPC2
Citrobacter freundii = test: Antimicrobial susceptibility of Citrobacter freundii CF6010 isolate expressing carbapenemase KPC2
Pseudomonas aeruginosa [2] = test: Antimicrobial susceptibility of carbapenem-resistant Pseudomonas aeruginosa PA4036 isolate expressing carbapenemase KPC2
Pseudomonas aeruginosa [3] = test: Antimicrobial susceptibility of carbapenem-resistant Pseudomonas aeruginosa PA2404 isolate expressing carbapenemase KPC2

Compound | MIC (Pseudomonas aeruginosa [1]) [µg/mL] | MIC (Citrobacter freundii) [µg/mL] | MIC (Pseudomonas aeruginosa [2]) [µg/mL] | MIC (Pseudomonas aeruginosa [3]) [µg/mL]
CC(O)[C@H]1C(=O)N2C(C(=O)O)=C(SCCNC=N)C[C@H]12 (single isomer, unassigned) [IMIPENEM ANHYDROUS] | > 256 | 8 (≈ 26.7 µM) | > 256 | 256 (≈ 855 µM)
CO/N=C(\C(=O)N[C@@H]1C(=O)N2C(C(=O)O)=C(COC(C)=O)CS[C@H]12)c1csc(N)n1 (stereo in doubt) [CEFOTAXIME] | > 256 | 32 (≈ 70.3 µM) | > 256 | > 256
NCC[C@H](O)C(=O)N[C@@H]1C[C@H](N)[C@@H](O[C@H]2O[C@H](CN)[C@@H](O)[C@H](O)[C@H]2O)[C@H](O)[C@H]1O[C@H]1O[C@H](CO)[C@@H](O)[C@H](N)[C@H]1O [AMIKACIN] | 16 (≈ 27.3 µM) | 2 (≈ 3.42 µM) | 16 (≈ 27.3 µM) | 16 (≈ 27.3 µM)
CC1(C)S[C@@H]2[C@H](NC(=O)[C@H](N)c3ccccc3)C(=O)N2[C@H]1C(=O)O [AMPICILLIN] | > 256 | > 256 | > 256 | > 256
C[C@H]1[C@H](NC(=O)/C(=N\OC(C)(C)C(=O)O)c2csc(N)n2)C(=O)N1S(=O)(=O)O [AZTREONAM] | > 256 | 128 (≈ 294 µM) | > 256 | > 256
CO/N=C(\C(=O)N[C@@H]1C(=O)N2C(C(=O)[O-])=C(C[N+]3(C)CCCC3)CS[C@H]12)c1csc(N)n1 [CEFEPIME] | > 256 | 8 (≈ 16.6 µM) | > 256 | > 256
CC(C)(O/N=C(\C(=O)N[C@@H]1C(=O)N2C(C(=O)[O-])=C(C[n+]3ccccc3)CS[C@H]12)c1csc(N)n1)C(=O)O [CEFTAZIDIME] | 256 (≈ 468 µM) | 32 (≈ 58.5 µM) | 256 (≈ 468 µM) | 256 (≈ 468 µM)
CO/N=C(\C(=O)N[C@@H]1C(=O)N2C(C(=O)O)=C(CSc3nc(=O)c(O)nn3C)CS[C@H]12)c1csc(N)n1 [CEFTRIAXONE] | > 256 | 256 (≈ 462 µM) | > 256 | > 256
C[C@@H](O)[C@H]1C(=O)N2C(C(=O)O)=C(S[C@@H]3CN[C@H](C(=O)Nc4cccc(C(=O)O)c4)C3)[C@H](C)[C@H]12 [ERTAPENEM] | 256 (≈ 538 µM) | 16 (≈ 33.6 µM) | > 256 | > 256
C[C@@H](O)[C@H]1C(=O)N2C(C(=O)O)=C(S[C@@H]3CN[C@H](C(=O)N(C)C)C3)[C@H](C)[C@H]12 [MEROPENEM] | > 256 | 8 (≈ 20.9 µM) | > 256 | > 256
CCN1CCN(C(=O)N[C@@H](C(=O)N[C@@H]2C(=O)N3[C@@H]2SC(C)(C)[C@@H]3C(=O)O)c2ccccc2)C(=O)C1=O [PIPERACILLIN] | > 256 | > 256 | > 256 | > 256
CN(C)c1cc(NC(=O)CNC(C)(C)C)c(O)c2c1C[C@H]1C[C@H]3[C@H](N(C)C)C(O)=C(C(N)=O)C(=O)[C@@]3(O)C(O)=C1C2=O [TIGECYCLINE] | 16 (≈ 27.3 µM) | 0.5 (≈ 0.854 µM) | 16 (≈ 27.3 µM) | 16 (≈ 27.3 µM)
NC[C@H]1O[C@H](O[C@H]2[C@H](O)[C@@H](O[C@H]3O[C@H](CO)[C@@H](O)[C@H](N)[C@H]3O)[C@H](N)C[C@@H]2N)[C@H](N)C[C@@H]1O [TOBRAMYCIN] | > 128 | 64 (≈ 137 µM) | > 128 | > 128
COLISTIN | 2 | 0.5 | 1 | 1
GENTAMICIN | > 128 | > 128 | > 128 | > 128
